Test results reported in PMC3765993, “The duration of sleep promoting efficacy by dual orexin receptor antagonists is dependent upon receptor occupancy threshold” (BMC Neuroscience, 2013).
Marks after values point to notes of the source that are not given here.

Columns and labels:
OX2R [1] = molecular target: T1, OX2R (Rattus norvegicus, UniProt P56719); set-up: method as in earlier work; conditions: ref 29 (Dugovic et al. 2009); cited from earlier work
T1 sequence (P56719 1-460): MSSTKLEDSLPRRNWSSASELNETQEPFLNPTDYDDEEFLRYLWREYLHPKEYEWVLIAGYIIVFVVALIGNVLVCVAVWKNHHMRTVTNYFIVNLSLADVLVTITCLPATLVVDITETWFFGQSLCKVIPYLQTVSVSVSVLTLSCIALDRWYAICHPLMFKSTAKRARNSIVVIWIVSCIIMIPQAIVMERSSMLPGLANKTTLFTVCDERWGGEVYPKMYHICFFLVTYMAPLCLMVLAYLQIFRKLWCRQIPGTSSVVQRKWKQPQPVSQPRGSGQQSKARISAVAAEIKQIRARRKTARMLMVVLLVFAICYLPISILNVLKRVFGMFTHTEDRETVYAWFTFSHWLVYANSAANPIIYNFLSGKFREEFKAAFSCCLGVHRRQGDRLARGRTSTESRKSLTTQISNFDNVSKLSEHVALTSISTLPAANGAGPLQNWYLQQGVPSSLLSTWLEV

OX2R [2] = molecular target: T2, OX2R (Homo sapiens, UniProt O43614); assay: OX2R occupancy, ex vivo radioligand-binding displacement in transgenic rats expressing human OX2R; set-up: from tissue; host or cells: brain homogenate of transgenic rats expressing hOX2R under the rat enolase promoter; species or system transgenic rat; conditions: satellite rats, 100 mg/kg, treatment at onset of inactive phase
T2 sequence (O43614 1-444): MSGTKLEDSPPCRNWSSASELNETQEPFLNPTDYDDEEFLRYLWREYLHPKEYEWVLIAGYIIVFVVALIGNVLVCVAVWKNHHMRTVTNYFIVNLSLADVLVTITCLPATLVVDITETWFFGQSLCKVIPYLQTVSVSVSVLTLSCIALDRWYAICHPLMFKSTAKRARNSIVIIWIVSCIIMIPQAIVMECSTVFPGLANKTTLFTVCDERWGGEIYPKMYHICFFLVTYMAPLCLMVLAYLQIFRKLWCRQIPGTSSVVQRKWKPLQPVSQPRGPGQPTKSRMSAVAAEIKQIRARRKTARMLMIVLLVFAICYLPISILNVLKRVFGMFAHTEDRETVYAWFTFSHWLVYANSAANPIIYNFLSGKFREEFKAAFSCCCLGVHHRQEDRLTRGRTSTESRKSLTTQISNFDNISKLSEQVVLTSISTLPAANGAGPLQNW
From the text: Frozen tissue was weighed and thawed coincident with homogenization.

rats = assay: Rat telemetry polysomnography (time in active wake and sleep stages); type: in vivo; conditions: 100 mg/kg
Experimental: The mean time spent in sleep stages was determined in radio-telemetry-implanted mice, rats, dogs, and rhesus monkeys as first described by Renger and colleagues and subsequently by Winrow and colleagues with minor modifications. For baseline studies, recordings were taken continuously from unperturbed mice, rats, dogs, and monkeys for 6, 6, 10, or 5 days, respectively, and the mean time spent in all sleep stages in 30-min intervals were averaged and plotted onto a single 24-h period (Figure 1). Almorexant is a DORA [43] that was previously in clinical development for the treatment of insomnia. The clinical development program for almorexant was terminated in early 2011. […] In all cases, mean time in active wake, quiet wake, SWS, and REM sleep was determined for each 30-min interval for 3 days of each condition and averaged onto a single 24-h period. […] Statistical differences in mean time spent in active wake, quiet wake, SWS, and REM sleep between vehicle- and compound-treated groups at 30-min time points were determined by a linear mixed-effects model applied t-test.

[3] = Plasma and CSF compound levels in satellite rats; conditions: rat, in vivo, 100 mg/kg
Experimental: Separately, the relationship between OX2R occupancy relative to plasma exposure was determined by administering DORA-12 intravenously (i.v.) over a range of doses to transgenic rats expressing human OX2R to determine a full occupancy curve over a wide range of plasma concentrations in order to define the maximal occupancy against which raw occupancy values could be normalized. This relationship was then used to determine the OX2R occupancy in PSG experiments from measured plasma concentrations.
Occupancy of human OX2R in transgenic rats expressing the receptor via the rat enolase promoter was performed ex vivo in radioligand-binding-displacement assays essentially as previously described with minor modifications. To determine the relationship between OX2R occupancy for a given compound over a full range of plasma and CSF concentrations, hOX2R-expressing rats were dosed i.v. with compound. Immediately following 30 min of i.v. administration, animals were anesthetized, sacrificed, and CSF, blood, and brain tissue were harvested and frozen for analysis. Frozen tissue was weighed and thawed coincident with homogenization. The homogenate was pelleted at 21,000 × g for 1 min and the pellet was resuspended. […] Non-specific binding was determined by the addition of 1000-fold excess unlabeled ligand. Experimental (dosed)-specific binding was compared with control (vehicle-dosed) binding ([specific total counts minus specific experimental counts]/specific total counts × 100 = percent occupancy). Raw occupancy values determined in this manner over a range of plasma and CSF values were then used to construct a normalized curve where the theoretical maximum occupancy value was defined as 100% and occupancies relative to plasma or CSF values were fit to a […] (hyperbola) curve (GraphPad Prism, San Diego, CA, USA). […] In separate experiments, plasma, CSF, and brain tissue was collected at time points following dosing to directly measure compound levels and corresponding OX2R occupancies at these times. Resulting occupancy relative to measured plasma levels of compound was fit to a normalized binding curve as described previously.

Orexin 2 receptor = molecular target: T3, Orexin 2 receptor (Homo sapiens, UniProt O43614); assay: Orexin 2 receptor binding kinetics; conditions: for T1/2 ON (binding half-life): almorexant applied 3-fold above its Kd (value an underestimate); for koff: read-out: KOFF (dissociation constant)
T3 sequence (O43614 1-444): T2 sequence (O43614 1-444)

rhesus monkeys [4] = assay: Rhesus monkey polysomnography (active wake); type: in vivo; conditions: 10 mg/kg p.o. 2 h before lights out, 10 mg/kg
Experimental: Animals were fed on a calorie-controlled diet of laboratory chow supplemented with fruit and vegetables. Water was available ad libitum with the exception of those monkeys trained to perform cognitive tasks, for which access was restricted for up to 4 h prior to and during cognitive testing. Treatment occurred at 14:40 (Zeitgeber time [ZT] 10:10) in a balanced 1-day cross-over design: 1 day of drug or vehicle followed by 6 days of baseline followed by 1 day of vehicle or drug. Cognition tasks were scheduled for next-day evaluation as described below. Sleep/wake architecture was scored according to vigilance state (active wake, quiet wake, delta sleep I, delta sleep II, and REM sleep) at 30-minute intervals and analyzed as previously described. Spectral analysis of continuous EEG was quantified between vehicle and compound after binning continuous frequencies into canonical frequency bands (reported herein: Delta, 0.5 – 4 Hz; Theta, 4.0 – 7 Hz; Gamma, 35.0 – 100.0 Hz). qEEG values are spectral power (uV2) log transformed before analysis and averaged over 30-minute intervals, expressed as means +/− SEM, and compared with vehicle using a mixed-model ANOVA at each time point with random effects for subject and date within subject in the R statistical computing environment (cran.us.r-project.org; the R Foundation for Statistical Computing, Vienna, Austria) using a linear mixed effects model for significance testing.

rhesus monkeys [5] = assay: Monkey Serial Choice Reaction Time (SCRT) task; type: in vivo; conditions: 10 mg/kg p.o., versus vehicle, 10 mg/kg
From the text: Each SCRT trial was initiated with the appearance of 10 blue square ‘target’ images evenly distributed at 3-inch intervals around the perimeter of a touchscreen presented together with a centrally located circular ‘centering’ image (1.4 inch diameter circle). The task began with the monkey touching the centering image, which then turned gray. The monkey was then required to touch the centering image continuously throughout a variable pre-cue interval of 0.25-7.5 s. On completion of the pre-cue interval, one of the blue target images was cued by turning red for one of four cue durations before turning back to blue. To obtain a reward, the monkey was required to touch the target image that had been ‘cued’ red within a 5 s limited hold period. […] On completion of the trial, an inter-trial interval of 2 s was initiated prior to the next trial. […] If the monkey initiated a trial but removed its hand from the touchscreen prior to the appearance of the cue, the trial was terminated and the screen was blanked during a 2 s inter-trial interval. Sessions were terminated after 20 min. Cue location and duration were pseudo-randomly assigned. Cue duration and the target size were titrated for each subject on the basis of performance during previous baseline sessions to yield a performance of 60–80% correct responses for the trials of the shortest cue duration. The briefest cue duration varied from 0.04–0.1 s and the cues varied in size from 0.2–0.7 inches, although each cue had the same touch-sensitive area of 1.75 inches. Values reported in the current study reflect the proportion of correct responses to targets after cues of the shortest duration only.

rhesus monkeys [6] = assay: Monkey Delayed Match to Sample (DMS) task; type: in vivo; conditions: 10 mg/kg p.o., versus vehicle
From the text: All cognition testing occurred in the animal’s home cage equipped with a touchscreen. Each DMS trial was initiated with a single ‘sample’ image (150 × 200 pixels: 1.8 inches × 2.3 inches) in one of eight colors presented at the center of a touchscreen. Evaluation began when the monkey touched the sample image, at which point the screen became blank for a retention period. Following the retention period, four choice images (150 × 200 pixels) were presented, one in each corner of the screen. One of the four choice images matched the color of the sample image, whereas the three remaining ‘distractor’ images were drawn from the pool of remaining colors. A reinforcer was provided when the monkey touched the choice image that matched the color of the sample image. […] Test sessions comprised 96 trials or lasted for up to 45 min. […] Response latencies to sample and choice images were also recorded. Values reported reflect the proportion of correct responses collapsed over all retention intervals. Differences from vehicle were examined using repeated measures ANOVA.

rhesus monkeys [7] = conditions: sleep-promoting doses; cited from earlier work

Compound	KON (association constant) (Orexin 2 receptor)	Kd (Orexin 2 receptor)	T1/2 OFF (half-life off-rates) (Orexin 2 receptor)	T1/2 ON (binding half-life) (Orexin 2 receptor)	koff (Orexin 2 receptor)	Cognitive assessment in DMS and SCRT tasks within 2 h following treatment (rhesus monkeys [7])	further results
CNC(=O)[C@@H](c1ccccc1)N1CCc2cc(OC)c(OC)cc2[C@@H]1CCc1ccc(C(F)(F)F)cc1 [Almorexant]	1.58e+07 mol⁻¹ min⁻¹	48 pM	4.47 h	162^a min	4.49e-05 s⁻¹		OX2R occupancy above which significant changes appeared (OX2R [1]): above 89%; OX2R occupancy at which efficacy was not observed (OX2R [1]): 78%; OX2R occupancy at 10 h (OX2R [2]): remained elevated; Duration of active wake reduction following treatment (rats; dosed during active phase): up to 7.5 h; Duration of active wake reduction following treatment (rats; inactive-phase treatment): up to 11 h; Levels within the CSF at 10 h [3]: undetectable
CN1C(=O)CN=C(c2ccccc2)c2cc(Cl)ccc21 [Diazepam]						substantial deficits	Active wake late in the inactive phase and next morning (residual sleep effect) (rhesus monkeys [4]): promoted sleep throughout the normal resting period and into the subsequent active phase; Active wake late in the inactive phase and next morning (residual sleep effect) (rhesus monkeys [4]; listed as diazepam): significantly attenu-ated active wake; Next-day attention (SCRT, correct responses to shortest cues), 16 h after dosing (rhesus monkeys [5]): impacted memory and attention; Next-day attention (SCRT, correct responses to shortest cues), 16 h after dosing (rhesus monkeys [5]; listed as diazepam): significant deficits; Next-day recognition memory (DMS), 14 h after dosing (rhesus monkeys [6]): impacted memory and attention; Next-day recognition memory (DMS), 14 h after dosing (rhesus monkeys [6]; listed as diazepam): Significant deficits
Cc1ccc(-c2ncccn2)c(C(=O)N2C[C@H](COc3ccc(F)cn3)CC[C@H]2C)c1 [MK-6096, [(2R,5R)-5-{[(5-fluoropyridin-2-yl)oxy]methyl}-2-methylpiperidin-1-yl][5-methyl-2-(pyrimidin-2-yl)phenyl]methanone]	1.69e+07 mol⁻¹ min⁻¹	338 pM	1.97 h	62.9 min	0.000113 s⁻¹		
Cc1nc(C(=O)N2CCCC[C@H]2CNC(=O)c2cccc3occc23)c(-c2ccc(F)cc2)s1 [SB-649868]	2.56e+07 mol⁻¹ min⁻¹	163 pM	0.95 h	37.0 min	0.00021 s⁻¹		
Cc1ccc(-c2nc3ccc(C)cn3c2CC(=O)N(C)C)cc1 [Zolpidem]						substantial deficits	
